IC50 and IC90 data for 22 compounds are collected here from PubChem BioAssay AID434987 (Southern Research Specialized Biocontainment Screening …, 2010).

In the assay the test system is M. tuberculosis H37Rv growth inhibition with meropenem. The assay is described as follows: dose response, H37Rv, with and without meropenem (AID 434987).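 Further: growth over 7 days at 37 °C before Alamar Blue read on day 9.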
Where [1] appears, read: M. tuberculosis H37Rv growth inhibition, measured here: IC50 without meropenem.
Where [2] appears, read: M. tuberculosis H37Rv growth inhibition, measured here: IC90 without meropenem.
The mark [3] stands for this setting: measured here: IC90 with meropenem.

SMILES strings stand for the structures. The source made the active and inactive calls. How the calls were made is not given here.

Consider `O=C(COc1ccccc1)NNC(=O)c1cc2ccccc2oc1=O`, for which the IC50 was 15.3 µM. Under setting [1], the IC50 is over 100 µM. The same compound registered an IC90 under setting [2] of over 100 µM. Under setting [3], the IC90 is over 100 µM.
For the compound `COc1ccc(OC)c(NC(=O)CS(=O)(=O)c2ccccc2)c1`, the IC50 was 12.1 µM (inactive). This compound returned an IC50 under setting [1] of 28.7 µM. Under setting [2], this compound displayed an IC90 of over 100 µM. For the same compound, the IC90 under setting [3] worked out at 14.3 µM.
On to `N/C(=N\c1nc2ccccc2o1)NC(=O)c1ccccc1Br`, for which the concentration for half-maximal inhibition (IC50) is under 0.2 µM. Under setting [1], this compound had a concentration for half-maximal inhibition (IC50) of 28.4 µM. Under setting [2], this compound had an IC90 of over 100 µM. Besides, the IC90 under setting [3] was over 100 µM.
In the case of `CCOc1ccc(-c2cnc3n2CCC3)cc1`, the IC50 is 35 µM. The compound also gave an IC50 under setting [1] of over 100 µM. This compound displayed an IC90 under setting [2] of over 100 µM. Moreover, the IC90 under setting [3] is over 100 µM.
Turning to `CCOC(=O)c1c(NC(=O)COC(=O)c2ncc(Cl)c(Cl)c2Cl)sc(C(=O)N(C)C)c1C`, the IC50 is 24.8 µM (inactive). The IC50 under setting [1] worked out at 47.3 µM. This compound also came in with an IC90 under setting [2] of 53.4 µM. This compound displayed an IC90 under setting [3] of 27.7 µM.
Turning to `Cc1ccc(S(=O)(=O)NCCCCCC(=O)Nc2ccccn2)cc1`, the IC50 is > 100 µM (inactive). Further, under setting [1], the IC50 was over 100 µM. Moreover, the IC90 under setting [2] is over 100 µM. The IC90 under setting [3] is over 100 µM.
`CCC(=O)N1CCN(c2ccc(NC(=S)NC(=O)c3ccc(OC)c([N+](=O)[O-])c3)cc2)CC1`: the IC50 was 40.2 µM (inactive). The IC50 under setting [1] was 79.6 µM. Besides, the IC90 under setting [2] is over 100 µM. The concentration for an effect of 90% (IC90) under setting [3] was 67.8 µM.
Consider `Cc1cccc(Cl)c1NC(=S)NN`, for which the IC50 is 36 µM (inactive). The IC50 under setting [1] was 44.5 µM. Moreover, the IC90 under setting [2] came out at 59.5 µM. Further, the IC90 under setting [3] came to 55.1 µM.
Taken in the same sequence, the figures for `COc1ccc(NC(C)C(=O)N/N=C/c2ccc([N+](=O)[O-])s2)cc1` (stereo not drawn) were 2.17 µM (inactive), 3.12 µM, 4.8 µM and 4.79 µM.
The like results for `O=c1[nH]c(C2CCN(S(=O)(=O)c3ccc(S(=O)(=O)NC4CC4)cc3)CC2)nc2c1nnn2Cc1ccc(F)cc1` were, in that order, > 100 µM (inactive), over 100 µM, over 100 µM and over 100 µM.
On to `COc1ccc(C(=O)NC(=S)Nc2ccc(S(=O)(=O)Nc3cc(C)on3)cc2)cc1OC`, for which the half-inhibitory concentration (IC50) is 13.8 µM. This compound displayed an IC50 under setting [1] of 36.5 µM. This compound gave a concentration for an effect of 90% (IC90) under setting [2] of over 100 µM. Under setting [3], this compound registered a concentration for an effect of 90% (IC90) of 29 µM.
Taken in the same sequence, the figures for `COc1ccc(/C=C2\N=C(SC)N(c3ccccc3OC)C2=O)cc1` were 18.1 µM, over 100 µM, over 100 µM and over 25 µM.
For `CCCc1nc2oc3c(OCC)ncnc3c2c2c1COC(C)(C)C2`, the IC50 is 72.5 µM (inactive). Under setting [1], this compound displayed a concentration for half-maximal inhibition (IC50) of over 100 µM. For the same compound, the IC90 under setting [2] is over 100 µM. Under setting [3], this compound had an IC90 of over 100 µM.
For the compound `CN1CCN(S(=O)(=O)c2ccc(NC(=O)c3ccc(Br)s3)cc2)CC1`, the IC50 is 74.7 µM (inactive). Moreover, the IC50 under setting [1] was over 100 µM. Under setting [2], this compound returned an IC90 of over 100 µM. The IC90 under setting [3] is over 100 µM.
For `O=C(NCC(c1ccco1)N1CCc2ccccc21)c1ccc([N+](=O)[O-])cc1` (stereo not drawn), the IC50 is > 100 µM (inactive). For the same compound, under setting [1], the IC50 was over 100 µM. For the same compound, under setting [2], the IC90 was over 100 µM. Further, the IC90 under setting [3] is over 100 µM.
As for `O=c1oc(-c2cccs2)nc2sc3c(c12)CCC3`, the IC50 was 93 µM (inactive). Under setting [1], this compound registered an IC50 of over 100 µM. Under setting [2], this compound had an IC90 of over 100 µM. The compound also had an IC90 under setting [3] of over 100 µM.
Turning to `Cc1ccccc1OCC(=O)Nc1ccccc1N1CCCCC1`, the IC50 was 5.94 µM. In addition, the IC50 under setting [1] came out at 96.4 µM. The same compound yielded a 90% effect concentration (IC90) under setting [2] of over 100 µM. This compound also displayed an IC90 under setting [3] of 13.5 µM.
As for `Cc1cccc(CSc2nnc(C)c(=O)n2N)c1`, the IC50 is 5.94 µM (inactive). This compound had a half-maximal inhibitory concentration (IC50) under setting [1] of 12.4 µM. Further, the IC90 under setting [2] was 20.9 µM. In addition, the IC90 under setting [3] worked out at 9.9 µM.
Regarding `COC(=O)/C(=C\Nc1ccc(Cl)cc1Cl)NC(=O)c1ccc(Cl)cc1Cl`, the IC50 was > 100 µM (inactive). This compound also came in with an IC50 under setting [1] of over 100 µM. Besides, the IC90 under setting [2] is over 100 µM. The IC90 under setting [3] was over 100 µM.
As for `CSc1ccccc1C(=O)Nc1cccc([N+](=O)[O-])c1C`, the IC50 is > 100 µM (inactive). The IC50 under setting [1] was over 100 µM. Moreover, under setting [2], the concentration for an effect of 90% (IC90) is over 100 µM. The same compound gave a 90% effect concentration (IC90) under setting [3] of over 100 µM.
Take `Cc1cc(=S)nc(-c2ccccn2)[nH]1`: the IC50 is 13.1 µM. Moreover, under setting [1], the IC50 stood at 48.3 µM. Further, the IC90 under setting [2] stood at 50.4 µM. Besides, the IC90 under setting [3] came out at 19.7 µM.
Taken in the same sequence, the figures for `Cn1nnnc1Sc1ncnc2scc(-c3ccccc3)c12` were > 100 µM (inactive), over 100 µM, over 100 µM and over 100 µM.
